Experimental data taken from PMC4844702, “Selective inhibition of the kinase DYRK1A by targeting its folding process” (Nature Communications, 2016).

Key:
Experiment in all cases: Kinase panel (Carna)
Type in all cases: biochemical
PKCγ = biological target: T1, PKCγ (Homo sapiens, UniProt P05129)
T1 construct: purchased Carna Biosciences
Description: (§1) Detailed information on the assay conditions is available on the website of Carna Biosciences (http://www.carnabio.com).

PKCθ = biological target: T2, PKCθ (Homo sapiens, UniProt Q04759)
T2 construct: purchased Carna Biosciences
Description: as §1

PLK3 = biological target: T3, PLK3 (Homo sapiens, UniProt Q9H4B4); conditions: 10 µM FINDY
T3 construct: purchased Carna Biosciences

LATS2 = biological target: T4, LATS2 (Homo sapiens, UniProt Q9NRM7)
T4 construct: purchased Carna Biosciences
T4 sequence (Q9NRM7 whole entry): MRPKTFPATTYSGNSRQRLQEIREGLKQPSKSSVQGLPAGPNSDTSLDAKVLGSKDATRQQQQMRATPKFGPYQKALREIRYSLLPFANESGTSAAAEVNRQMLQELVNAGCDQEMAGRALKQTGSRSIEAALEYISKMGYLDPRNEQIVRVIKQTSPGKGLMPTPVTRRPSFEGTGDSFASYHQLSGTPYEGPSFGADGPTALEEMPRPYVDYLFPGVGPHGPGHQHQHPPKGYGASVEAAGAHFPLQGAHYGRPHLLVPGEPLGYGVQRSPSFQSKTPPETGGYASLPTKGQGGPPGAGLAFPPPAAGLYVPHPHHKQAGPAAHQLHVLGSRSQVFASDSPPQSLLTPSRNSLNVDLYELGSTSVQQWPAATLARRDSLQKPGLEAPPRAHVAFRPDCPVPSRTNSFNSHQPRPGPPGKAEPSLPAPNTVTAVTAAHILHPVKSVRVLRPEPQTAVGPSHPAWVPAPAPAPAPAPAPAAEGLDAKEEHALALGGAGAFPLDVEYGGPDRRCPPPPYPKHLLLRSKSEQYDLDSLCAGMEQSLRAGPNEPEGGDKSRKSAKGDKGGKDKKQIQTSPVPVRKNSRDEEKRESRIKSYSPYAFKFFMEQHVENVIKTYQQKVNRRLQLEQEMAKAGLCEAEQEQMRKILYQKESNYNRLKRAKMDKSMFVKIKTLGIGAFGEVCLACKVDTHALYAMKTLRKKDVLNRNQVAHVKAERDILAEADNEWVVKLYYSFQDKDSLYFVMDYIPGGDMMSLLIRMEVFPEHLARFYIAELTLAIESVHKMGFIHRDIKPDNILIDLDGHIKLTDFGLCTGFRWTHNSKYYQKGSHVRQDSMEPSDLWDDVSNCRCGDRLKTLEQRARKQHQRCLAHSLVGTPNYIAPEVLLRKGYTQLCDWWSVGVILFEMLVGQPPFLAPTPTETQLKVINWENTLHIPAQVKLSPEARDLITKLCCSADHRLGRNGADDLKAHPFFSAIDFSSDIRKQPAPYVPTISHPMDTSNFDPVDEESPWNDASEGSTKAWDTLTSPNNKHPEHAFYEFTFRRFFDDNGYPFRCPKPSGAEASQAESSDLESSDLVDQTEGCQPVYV

SGK2 = biological target: T5, SGK2 (Homo sapiens, UniProt Q9HBY8)
T5 construct: purchased Carna Biosciences

Haspin = biological target: T6, Haspin (Homo sapiens, UniProt Q8TF76)
T6 construct: purchased Carna Biosciences

PDGFRα = biological target: T7, PDGFRα (Homo sapiens, UniProt P16234)
T7 construct: purchased Carna Biosciences
Description: as §1

EPHA2 = biological target: T8, EPHA2 (Homo sapiens, UniProt P29317)
T8 construct: purchased Carna Biosciences

AurB = biological target: T9, AurB (Homo sapiens, UniProt Q96GD4)
T9 construct: purchased Carna Biosciences
Description: as §1

NEK1 = biological target: T10, NEK1 (Homo sapiens, UniProt Q96PY6)
T10 construct: purchased Carna Biosciences
Description: as §1

PAK5 = biological target: T11, PAK5 (Homo sapiens, UniProt Q9P286)
T11 construct: purchased Carna Biosciences
Description: as §1

CDK9/CycT1 = biological target: T12, CDK9/CycT1 (Homo sapiens, UniProt P50750)
T12 construct: purchased Carna Biosciences
Description: as §1

CHK1 = biological target: T13, CHK1 (Homo sapiens, UniProt O14757)
T13 construct: purchased Carna Biosciences
Description: as §1

CaMK2δ = biological target: T14, CaMK2δ (Homo sapiens, UniProt Q13557)
T14 construct: purchased Carna Biosciences
T14 sequence (Q13557 whole entry): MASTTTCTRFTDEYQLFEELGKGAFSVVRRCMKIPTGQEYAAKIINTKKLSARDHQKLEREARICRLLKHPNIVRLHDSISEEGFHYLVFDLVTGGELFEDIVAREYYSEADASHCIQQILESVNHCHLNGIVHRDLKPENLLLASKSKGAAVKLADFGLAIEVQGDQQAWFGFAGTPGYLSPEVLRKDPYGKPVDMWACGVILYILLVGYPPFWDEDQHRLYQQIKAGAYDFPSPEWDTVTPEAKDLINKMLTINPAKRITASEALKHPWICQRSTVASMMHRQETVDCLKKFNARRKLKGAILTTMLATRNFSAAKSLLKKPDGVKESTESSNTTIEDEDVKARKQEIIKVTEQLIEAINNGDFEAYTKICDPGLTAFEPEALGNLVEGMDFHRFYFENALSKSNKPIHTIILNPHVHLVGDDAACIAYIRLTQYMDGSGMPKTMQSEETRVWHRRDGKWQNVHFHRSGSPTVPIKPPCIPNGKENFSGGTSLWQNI

PDK1 = biological target: T15, PDK1 (Homo sapiens, UniProt O15530)
T15 construct: purchased Carna Biosciences
T15 sequence (O15530 whole entry): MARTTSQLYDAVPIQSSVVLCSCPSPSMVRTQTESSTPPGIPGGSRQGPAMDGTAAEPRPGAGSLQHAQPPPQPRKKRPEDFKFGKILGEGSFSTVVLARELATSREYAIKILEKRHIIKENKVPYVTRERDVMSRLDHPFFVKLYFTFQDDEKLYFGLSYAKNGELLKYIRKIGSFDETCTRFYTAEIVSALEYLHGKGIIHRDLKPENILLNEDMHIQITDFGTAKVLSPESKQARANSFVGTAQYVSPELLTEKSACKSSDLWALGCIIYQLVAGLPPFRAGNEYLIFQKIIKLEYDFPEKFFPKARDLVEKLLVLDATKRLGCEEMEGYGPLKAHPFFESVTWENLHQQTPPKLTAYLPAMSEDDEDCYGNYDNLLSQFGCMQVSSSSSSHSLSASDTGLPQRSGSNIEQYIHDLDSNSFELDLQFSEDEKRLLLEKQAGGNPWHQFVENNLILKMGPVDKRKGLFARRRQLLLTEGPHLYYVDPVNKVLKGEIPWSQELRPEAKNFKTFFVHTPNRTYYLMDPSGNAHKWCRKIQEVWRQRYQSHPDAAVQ
Description: as §1

EPHA1 = biological target: T16, EPHA1 (Homo sapiens, UniProt P21709)
T16 construct: purchased Carna Biosciences
T16 sequence (P21709 26-976): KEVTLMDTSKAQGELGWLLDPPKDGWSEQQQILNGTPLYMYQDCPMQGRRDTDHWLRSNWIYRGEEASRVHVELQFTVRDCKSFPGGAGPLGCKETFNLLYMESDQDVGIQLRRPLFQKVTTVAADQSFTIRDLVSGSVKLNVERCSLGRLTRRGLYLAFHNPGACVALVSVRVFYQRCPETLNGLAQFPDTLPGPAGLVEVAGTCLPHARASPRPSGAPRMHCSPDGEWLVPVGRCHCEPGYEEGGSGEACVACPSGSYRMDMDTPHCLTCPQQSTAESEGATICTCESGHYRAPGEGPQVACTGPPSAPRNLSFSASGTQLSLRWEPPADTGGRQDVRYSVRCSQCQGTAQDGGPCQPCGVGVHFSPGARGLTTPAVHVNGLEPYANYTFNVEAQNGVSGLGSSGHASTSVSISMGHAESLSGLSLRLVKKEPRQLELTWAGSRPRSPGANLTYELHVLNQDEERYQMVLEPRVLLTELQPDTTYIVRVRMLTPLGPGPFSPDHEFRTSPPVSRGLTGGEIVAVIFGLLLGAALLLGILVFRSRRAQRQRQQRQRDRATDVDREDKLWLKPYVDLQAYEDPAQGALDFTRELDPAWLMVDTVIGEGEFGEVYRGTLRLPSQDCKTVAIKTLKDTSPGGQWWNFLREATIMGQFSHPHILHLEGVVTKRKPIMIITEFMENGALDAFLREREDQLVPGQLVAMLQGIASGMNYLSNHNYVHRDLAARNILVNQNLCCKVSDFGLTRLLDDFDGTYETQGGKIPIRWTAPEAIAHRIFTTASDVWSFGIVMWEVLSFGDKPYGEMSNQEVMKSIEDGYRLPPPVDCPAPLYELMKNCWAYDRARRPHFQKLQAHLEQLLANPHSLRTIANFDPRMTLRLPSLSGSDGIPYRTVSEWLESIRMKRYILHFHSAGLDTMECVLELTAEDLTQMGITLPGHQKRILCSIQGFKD

MAP2K7_Cascade = biological target: T17, MAP2K7_Cascade (Homo sapiens, UniProt O14733)
T17 construct: purchased Carna Biosciences
Description: as §1

IKKα = biological target: T18, IKKα (Homo sapiens, UniProt O15111)
T18 construct: purchased Carna Biosciences
Description: as §1

MET = biological target: T19, MET (Homo sapiens, UniProt P08581)
T19 construct: purchased Carna Biosciences
Description: as §1

ABL = biological target: T20, ABL (Homo sapiens, UniProt P00519)
T20 construct: purchased Carna Biosciences
Description: as §1

TRKB = biological target: T21, TRKB (Homo sapiens, UniProt Q16620)
T21 construct: purchased Carna Biosciences
Description: as §1

NEK7 = biological target: T22, NEK7 (Homo sapiens, UniProt Q8TDX7)
T22 construct: purchased Carna Biosciences
T22 sequence (Q8TDX7 whole entry): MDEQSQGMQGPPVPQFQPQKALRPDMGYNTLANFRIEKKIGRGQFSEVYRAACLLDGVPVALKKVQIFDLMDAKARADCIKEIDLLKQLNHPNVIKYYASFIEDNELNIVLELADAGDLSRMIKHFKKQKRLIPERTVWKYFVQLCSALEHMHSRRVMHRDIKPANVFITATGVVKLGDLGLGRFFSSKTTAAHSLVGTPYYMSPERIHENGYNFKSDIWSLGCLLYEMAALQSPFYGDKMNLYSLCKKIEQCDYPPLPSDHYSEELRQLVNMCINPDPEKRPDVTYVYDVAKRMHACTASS

SYK = biological target: T23, SYK (Homo sapiens, UniProt P43405)
T23 construct: purchased Carna Biosciences
Description: as §1

MARK1 = biological target: T24, MARK1 (Homo sapiens, UniProt Q9P0L2)
T24 construct: purchased Carna Biosciences
Description: as §1

ROCK1 = biological target: T25, ROCK1 (Homo sapiens, UniProt Q13464)
T25 construct: purchased Carna Biosciences

JAK3 = biological target: T26, JAK3 (Homo sapiens, UniProt P52333)
T26 construct: purchased Carna Biosciences
Description: as §1

FGR = biological target: T27, FGR (Homo sapiens, UniProt P09769)
T27 construct: purchased Carna Biosciences

PGK = biological target: T28, PGK (Homo sapiens, UniProt Q13976)
T28 construct: purchased Carna Biosciences
Description: as §1

DAPK1 = biological target: T29, DAPK1 (Homo sapiens, UniProt P53355)
T29 construct: purchased Carna Biosciences
Description: as §1

NEK4 = biological target: T30, NEK4 (Homo sapiens, UniProt P51957)
T30 construct: purchased Carna Biosciences

LOK = biological target: T31, LOK (Homo sapiens, UniProt O94804)
T31 construct: purchased Carna Biosciences

MGC42105 = biological target: T32, MGC42105 (Homo sapiens, UniProt Q8IY84)
T32 construct: purchased Carna Biosciences
Description: as §1

LCK = biological target: T33, LCK (Homo sapiens, UniProt P06239)
T33 construct: purchased Carna Biosciences
Description: as §1

TNIK = biological target: T34, TNIK (Homo sapiens, UniProt Q9UKE5)
T34 construct: purchased Carna Biosciences
Description: as §1

PASK = biological target: T35, PASK (Homo sapiens, UniProt Q96RG2)
T35 construct: purchased Carna Biosciences
Description: as §1

CK2α1/β = biological target: T36, CK2α1/β (Homo sapiens, UniProt P68400)
T36 construct: purchased Carna Biosciences

ALK = biological target: T37, ALK (Homo sapiens, UniProt Q9UM73)
T37 construct: purchased Carna Biosciences
T37 sequence (Q9UM73 19-1620): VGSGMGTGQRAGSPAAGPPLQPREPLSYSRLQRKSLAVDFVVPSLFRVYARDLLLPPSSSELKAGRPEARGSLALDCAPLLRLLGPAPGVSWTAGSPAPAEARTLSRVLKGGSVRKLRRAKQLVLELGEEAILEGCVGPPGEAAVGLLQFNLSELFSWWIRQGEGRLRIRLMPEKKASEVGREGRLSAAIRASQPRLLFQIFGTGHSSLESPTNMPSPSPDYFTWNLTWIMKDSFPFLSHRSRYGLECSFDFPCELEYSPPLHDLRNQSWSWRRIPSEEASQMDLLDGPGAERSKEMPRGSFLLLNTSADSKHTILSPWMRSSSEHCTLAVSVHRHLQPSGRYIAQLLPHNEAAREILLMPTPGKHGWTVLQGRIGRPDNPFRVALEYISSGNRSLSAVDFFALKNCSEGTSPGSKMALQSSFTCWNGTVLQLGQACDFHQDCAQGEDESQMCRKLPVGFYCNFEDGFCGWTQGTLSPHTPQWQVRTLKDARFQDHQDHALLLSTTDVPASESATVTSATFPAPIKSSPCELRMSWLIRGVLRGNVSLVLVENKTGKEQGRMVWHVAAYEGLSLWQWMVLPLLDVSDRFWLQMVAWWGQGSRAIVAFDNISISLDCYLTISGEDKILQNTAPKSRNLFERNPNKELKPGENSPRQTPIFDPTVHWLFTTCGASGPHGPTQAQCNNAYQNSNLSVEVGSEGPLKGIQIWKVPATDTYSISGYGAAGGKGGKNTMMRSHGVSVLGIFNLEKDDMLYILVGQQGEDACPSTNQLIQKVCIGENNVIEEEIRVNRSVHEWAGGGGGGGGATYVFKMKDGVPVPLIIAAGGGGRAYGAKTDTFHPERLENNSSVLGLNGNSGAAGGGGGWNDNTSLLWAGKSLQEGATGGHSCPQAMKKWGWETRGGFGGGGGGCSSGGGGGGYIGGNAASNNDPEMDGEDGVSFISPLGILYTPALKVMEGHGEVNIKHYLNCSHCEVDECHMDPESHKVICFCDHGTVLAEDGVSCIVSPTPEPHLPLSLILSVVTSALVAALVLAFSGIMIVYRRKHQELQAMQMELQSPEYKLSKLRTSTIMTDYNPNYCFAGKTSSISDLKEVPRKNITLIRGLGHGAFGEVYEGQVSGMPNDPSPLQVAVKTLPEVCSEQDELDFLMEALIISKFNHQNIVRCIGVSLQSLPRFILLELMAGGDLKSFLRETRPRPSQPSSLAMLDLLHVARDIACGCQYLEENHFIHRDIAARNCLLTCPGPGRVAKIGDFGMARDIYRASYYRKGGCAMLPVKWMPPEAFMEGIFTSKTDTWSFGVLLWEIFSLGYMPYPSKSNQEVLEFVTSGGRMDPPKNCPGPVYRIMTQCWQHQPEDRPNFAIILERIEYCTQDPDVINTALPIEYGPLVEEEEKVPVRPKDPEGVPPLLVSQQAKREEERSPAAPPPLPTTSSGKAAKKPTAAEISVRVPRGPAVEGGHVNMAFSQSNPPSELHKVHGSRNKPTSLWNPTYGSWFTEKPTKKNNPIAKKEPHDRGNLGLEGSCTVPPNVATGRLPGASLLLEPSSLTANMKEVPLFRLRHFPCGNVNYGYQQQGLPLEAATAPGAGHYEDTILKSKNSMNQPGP
Description: as §1

MARK2 = biological target: T38, MARK2 (Homo sapiens, UniProt Q7KZI7)
T38 construct: purchased Carna Biosciences
Description: as §1

MER = biological target: T39, MER (Homo sapiens, UniProt Q12866)
T39 construct: purchased Carna Biosciences
Description: as §1

MLK2_Cascade = biological target: T40, MLK2_Cascade (Homo sapiens, UniProt Q02779)
T40 construct: purchased Carna Biosciences
Description: as §1

MST4 = biological target: T41, MST4 (Homo sapiens, UniProt Q9P289)
T41 construct: purchased Carna Biosciences
Description: as §1

MLK1_Cascade = biological target: T42, MLK1_Cascade (Homo sapiens, UniProt P80192)
T42 construct: purchased Carna Biosciences
Description: as §1

PKCδ = biological target: T43, PKCδ (Homo sapiens, UniProt Q05655)
T43 construct: purchased Carna Biosciences
Description: as §1

BMX = biological target: T44, BMX (Homo sapiens, UniProt P51813)
T44 construct: purchased Carna Biosciences
Description: as §1

RSK4 = biological target: T45, RSK4 (Homo sapiens, UniProt Q9UK32)
T45 construct: purchased Carna Biosciences

## COc1ccc(/C=C2\SC(=S)NC2=O)cc1C#C[Si](C)(C)C [FINDY]
PKCγ
  inhibition at 10 µM: 4.1%
PKCθ
  inhibition at 10 µM: 6.5%
PLK3
  inhibition at 10 µM: 76.3%
LATS2
  inhibition at 10 µM: 1.2%
SGK2
  inhibition at 10 µM: 30.9%
Haspin
  inhibition at 10 µM: 30.3%
PDGFRα
  inhibition at 10 µM: 14.8%
EPHA2
  inhibition at 10 µM: 16.3%
AurB
  inhibition at 10 µM: 35.7%
NEK1
  inhibition at 10 µM: 37.3%
PAK5
  inhibition at 10 µM: -7%
CDK9/CycT1
  inhibition at 10 µM: 3.1%
CHK1
  inhibition at 10 µM: -119%
CaMK2δ
  inhibition at 10 µM: -4%
PDK1
  inhibition at 10 µM: -2.6%
EPHA1
  inhibition at 10 µM: 40.5%
MAP2K7_Cascade
  inhibition at 10 µM: 14.4%
IKKα
  inhibition at 10 µM: 4.9%
MET
  inhibition at 10 µM: 12.4%
ABL
  inhibition at 10 µM: 13%
TRKB
  inhibition at 10 µM: 4.9%
NEK7
  inhibition at 10 µM: -12.3%
SYK
  inhibition at 10 µM: 72.8%
MARK1
  inhibition at 10 µM: 46.7%
ROCK1
  inhibition at 10 µM: 6.8%
JAK3
  inhibition at 10 µM: 8.2%
FGR
  inhibition at 10 µM: 5.3%
PGK
  inhibition at 10 µM: 2.6%
DAPK1
  inhibition at 10 µM: 14.8%
NEK4
  inhibition at 10 µM: 6.8%
LOK
  inhibition at 10 µM: -28.2%
MGC42105
  inhibition at 10 µM: 12.5%
LCK
  inhibition at 10 µM: 7.2%
TNIK
  inhibition at 10 µM: 10.7%
PASK
  inhibition at 10 µM: 11.9%
CK2α1/β
  inhibition at 10 µM: 45.4%
ALK
  inhibition at 10 µM: -4.3%
MARK2
  inhibition at 10 µM: 60.8%
MER
  inhibition at 10 µM: 3.4%
MLK2_Cascade
  inhibition at 10 µM: 41%
MST4
  inhibition at 10 µM: 16.7%
MLK1_Cascade
  inhibition at 10 µM: 48.7%
PKCδ
  inhibition at 10 µM: -1.3%
BMX
  inhibition at 10 µM: 10.5%
RSK4
  inhibition at 10 µM: 29.6%
